Columns and labels:
[1] = system: TDP-43 in ALS patient-derived neurons; test: TDP-43 localization evaluation, ALS patient-derived neurons; format: cell-based, human; conditions: edaravone treatment, after 24 hours, DMSO group = 100 (FIG. 15)
Source text: (§1) Human induced pluripotent stem (iPS) cells were induced from cells derived from an ALS patient and cells derived from a healthy individual using a conventional method. The cells derived from the ALS patient were used that are known to have an ALS risk mutation as a heterozygous mutation in the TARDBP gene. Each iPS cell was differentiated into a motor neuron (hereinafter, also simply referred to as a “neuron”) using a conventional method. […]
Intracellular localization of TDP-43 polypeptides was evaluated by immunofluorescence staining of neurons. […] After further nuclear staining, washing with PBS, and imaging under a fluorescence microscope were performed. The captured images were analyzed using Matlab (Mathworks), and fluorescence intensities of TDP-43 in a nuclear region and in a cytoplasmic region were respectively calculated. […]
Regarding the intracellular localization of TDP-43 polypeptides, the nuclear and cytoplasmic TDP-43 fluorescence intensities and the cytoplasmic/nuclear TDP-43 intensity ratios in ALS cells and healthy cells are shown in FIG. 15. […]

[2] = system: ALS patient-derived neurons (iPS cell-derived motor neurons, heterozygous TARDBP mutation); test: Evaluation of cellular damage by live cell imaging, ALS patient-derived neurons; format: cell-based, human; conditions: edaravone 30 μM, 24 hours
Protocol: as §1
A treatment was performed in which the culture medium dissolved with a dimethyl sulfoxide (DMSO) solution of the evaluation compound (edaravone) (final concentration: edaravone 30 μM, DMSO 0.03% v/v) was brought into contact with the neurons after 7 days of cultivation, and occurrence of cellular damage was evaluated over time. […]
Evaluation of cellular damage was performed by live cell imaging using IncuCyte S3 (Sartorius) and Cytotox (Sartorius, 4846) according to an attached protocol. The neurite length per unit area (unit: mm/mm^2) and the number of dead cells (unit: count/image) were analyzed over time and used as evaluation indicators. […]

Structure (SMILES): CC1=NN(c2ccccc2)C(=O)C1 [edaravone, 5-methyl-2-phenyl-2,4-dihydro-3H-pyrazol-3-one]
- cytoplasmic TDP-43 intensity [1]: significantly decreased
- cytoplasmic/nuclear TDP-43 intensity ratio [1]: significantly decreased
- neurite length (rate of change, DMSO group = 100) ([2]; vs DMSO-treated group (FIG. 13)): significantly increased
- number of dead neurons (rate of change, DMSO group = 100) ([2]; vs DMSO-treated group (FIG. 14)): significantly decreased

Source: US20250137054A1, “COMPOSITION AND METHOD FOR EVALUATING RESPONSIVENESS OF EDARAVONE” (MITSUBISHI TANABE PHARMA CORPORATION, priority 2022, published 2025)
